Twelve compounds from patent US10865391B2, “Glutamate dehydrogenase mutants and their application in preparation of L-phosphinothricin” (ZHEJIANG UNIVERSITY, priority 2018, dated 2020) can be followed below.

Type in all cases: biochemical, Pseudomonas putida
In test [1] the test system is wild type PpGluDH. Put plainly: Catalytic activity toward other keto acid substrates by spectrophotometry, wild type. Conditions: keto acid as substrate.
Test [2] concerns PpGluDH-A167G. Put plainly: Catalytic activity toward other keto acid substrates by spectrophotometry, A167G mutant. As to conditions: keto acid as substrate; for Specific activity (U/mg) A167G: PpGluDH-A167G; for Catalytic activity of PpGluDH-A167G compared with the wild type: result in words.
The subject of test [3] is PpGluDH-V378A. Put plainly: Catalytic activity toward other keto acid substrates by spectrophotometry, V378A mutant. Conditions: keto acid as substrate; for Specific activity (U/mg) V378A: PpGluDH-V378A; for Catalytic activity of PpGluDH-V378A compared with the wild type: result in words.

Each structure is given as a SMILES string. A value given as a limit tells only on which side of the number the result lay.

Take `O=C(O)C(=O)CCc1ccccc1` [12a, 2-Oxo-4-phenylbutyric acid]: in test [1], the “Specific activity (U/mg) Wild” value is recorded as 0.08 U/mg. Also, in test [2], the “Specific activity (U/mg) A167G” value is reported as 0.33 U/mg and the “Catalytic activity of PpGluDH-A167G compared with the wild type” value is “improved to some extent”. Further, in test [3], the “Specific activity (U/mg) V378A” value turned out to be 0.04 U/mg and the “Catalytic activity of PpGluDH-V378A compared with the wild type” value is given as “decreased”.
As for `CCCCC(=O)C(=O)O` [9a, 2-Ketohexanoic acid], the “Specific activity (U/mg) Wild” value in test [1] came to 0.71 U/mg. Also, in test [2], the “Specific activity (U/mg) A167G” value is 1.23 U/mg and the “Catalytic activity of PpGluDH-A167G compared with the wild type” value was “improved catalytic activity”. Moreover, in test [3], the “Specific activity (U/mg) V378A” value is 1.49 U/mg and the “Catalytic activity of PpGluDH-V378A compared with the wild type” value is reported as “improved catalytic activity”.
`CCCC(=O)C(=O)O` [6a, 2-Oxovaleric acid]: the “Specific activity (U/mg) Wild” value in test [1] is 6.39 U/mg. The “Specific activity (U/mg) A167G” value in test [2] is given as 1.21 U/mg. Further, the “Specific activity (U/mg) V378A” value in test [3] was 2.37 U/mg.
For `O=C(O)C(=O)Cc1ccccc1` [11a, Phenylpyruvic acid] the same measures were <0.01 U/mg, <0.01 U/mg and <0.01 U/mg.
In the same order, the values of `CCC(C)C(=O)C(=O)O` (stereo not drawn) [7a, 3-Methyl-2-Oxovaleric acid] are 0.07 U/mg, <0.01 U/mg and 0.03 U/mg.
In the same order, the values of `O=C(O)C(=O)Cc1ccc(O)cc1` [13a, 4-hydroxyphenylpyruvic acid] are 0.02 U/mg, <0.01 U/mg and <0.01 U/mg.
Take `CC(C)C(=O)C(=O)O` [4a, 3-Methyl-2-oxobutanoic acid]: the “Specific activity (U/mg) Wild” value in test [1] was determined as 0.37 U/mg. Moreover, the “Specific activity (U/mg) A167G” value in test [2] is given as <0.01 U/mg. Besides, the “Specific activity (U/mg) V378A” value in test [3] is reported as 0.04 U/mg.
In the same order, the values of `CCC(=O)C(=O)O` [3a, 2-Ketobutyric acid] are 4.93 U/mg, 0.09 U/mg and 0.34 U/mg.
On to `CC(C)CC(=O)C(=O)O` [8a, 4-Methyl-2-Oxovaleric acid], for which the “Specific activity (U/mg) Wild” value in test [1] is 0.05 U/mg. Besides, the “Specific activity (U/mg) A167G” value in test [2] turned out to be 0.01 U/mg. In addition, the “Specific activity (U/mg) V378A” value in test [3] was 0.03 U/mg.
In the same order, the values of `CC(=O)C(=O)O` [2a, Pyruvic acid] are 0.15 U/mg, <0.01 U/mg and 0.01 U/mg.
As to `O=C(O)C(=O)c1ccccc1` [10a, Phenylglyoxylic acid], in test [1], the “Specific activity (U/mg) Wild” value is given as 0.04 U/mg. Also, in test [2], the “Specific activity (U/mg) A167G” value was determined as 0.01 U/mg. The “Specific activity (U/mg) V378A” value in test [3] is 0.01 U/mg.
Turning to `O=C(O)CCC(=O)C(=O)O` [1a, 2-Ketoglutaric acid], the “Specific activity (U/mg) Wild” value in test [1] was found to be 189.05 U/mg. In test [2], the “Specific activity (U/mg) A167G” value amounted to 314.41 U/mg and the “Catalytic activity of PpGluDH-A167G compared with the wild type” value is “improved catalytic activity”. Besides, in test [3], the “Specific activity (U/mg) V378A” value was determined as 268.48 U/mg and the “Catalytic activity of PpGluDH-V378A compared with the wild type” value was “improved catalytic activity”.
